The subject of one test is Treponema palladium. The settings on record: Thomas et al., 1985b; cited from earlier work.
In a further test the test system is Trypanosoma cruzi. The settings on record: Ouaissi et al., 1986; cited from earlier work.
For another test, the system named is spirochetes. The settings on record: cited from earlier work.
The next test addresses Human fibronectin (human, UniProt P02751, ^125 I-labeled (chloramine T iodination)). Nature of the test: synthetic peptide; inhibition of 125I-HFN binding to S. aureus 8325-4 cells.

Here are results for two molecules from patent publication US5440014A, “Fibronectin binding peptide” (priority 1990, dated 1995).

In the case of RGDS, the “prevention of fibronectin binding to Treponema palladium” value in the test with Treponema palladium was “Binding was also prevented”. The “prevention of fibronectin binding to Trypanosoma cruzi” value with Trypanosoma cruzi is reported as “Binding was also prevented”. In addition, in the test on spirochetes, the “attachment of spirochetes to cultured human cells” value is “blocked the attachment”.

For QFGGHNSVDFEEDT [Peptide S20-33], the binding result with Human fibronectin was “no binding”.
